According to patent publication US8673938B2, “Chemical compounds” (priority 2006, dated 2014):
pIC50: −log10 of the molar value.

Key:
human 11βHSD1 enzyme [1] = target: T1, human 11βHSD1 enzyme (Homo sapiens (Human), UniProt P28845); conditions: for % inhibition of human 11-βHSD: test concentration of 30 μM of compound
Procedure: (§1) The evaluation of compounds described herein was carried out using a baculovirus expressed N terminal 6-His tagged full length human 11βHSD1 enzyme(*1). […] Inhibitors of 11βHSD1 reduce the conversion of cortisone to cortisol, which is identified by an increase in signal, in the above assay.
(§2) Compounds to be tested were dissolved in dimethyl sulphoxide (DMSO) to 10 mM and diluted further in assay buffer containing 1% DMSO to 10 fold the final assay concentration. Diluted compounds were then plated into black 384 well plates (Matrix, Hudson N.H., USA).
(§3) The assay plates were incubated for 25 minutes at 37° C. after which time the reaction was stopped by the addition of 10 μl of 0.5 mM glycerrhetinic acid plus conjugated cortisol (XL665 or D2). 10 μl of anti-cortisol Cryptate was then added and the plates sealed and incubated for 6 hours at room temperature.

human 11βHSD1 enzyme [2] = target: T1, human 11βHSD1 enzyme; assay: biochemical; conditions: read-out: % inhibition of human 11-βHSD
Procedure: as §1, §2, §3

T1 sequence (P28845 whole entry): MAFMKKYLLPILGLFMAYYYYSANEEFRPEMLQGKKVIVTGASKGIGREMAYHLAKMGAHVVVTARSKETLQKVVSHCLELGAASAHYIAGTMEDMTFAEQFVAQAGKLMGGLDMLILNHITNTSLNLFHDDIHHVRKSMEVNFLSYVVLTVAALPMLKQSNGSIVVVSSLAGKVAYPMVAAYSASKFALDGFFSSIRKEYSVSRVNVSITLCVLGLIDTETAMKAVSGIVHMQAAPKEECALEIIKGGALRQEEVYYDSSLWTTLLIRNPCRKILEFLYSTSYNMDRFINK

Row | Compound | % inhibition of human 11-βHSD (human 11βHSD1 enzyme [1]) | also measured
1 | O=C(O)C[C@@H]1CCCN(c2ccc(C(=O)NC3CCCCC3)c(C3CC3)n2)C1 [compound 165] | 95% | 
2 | CCCSc1nc(N2CCC[C@@H](CC(=O)O)C2)ccc1C(=O)NC1CCCCC1 [Example 7, 2-[(3S)-1-[5-(cyclohexylcarbamoyl)-6-propylsulfanyl-pyridin-2-yl]-3-piperidyl]acetic acid] |  | inhibition at 30 µM (human 11βHSD1 enzyme [2]): 87%; pIC50 (human 11βHSD1 enzyme [1]): 8.15
3 | O=C(O)C[C@@H]1CCCN(c2ccc(C(=O)NC3C4CC5CC(C4)CC3C5)c(C3CC3)n2)C1 (stereo partly shown) [compound 166] | 95% | 
4 | O=C(O)C[C@@H]1CCCN(c2ccc(C(=O)NC3CCCCC3)cn2)C1 [compound 133] | 58% | 
5 | O=C(O)C[C@@H]1CCCN(c2ccc(C(=O)N[C@H]3C4CC5CC3C[C@@](O)(C5)C4)c(C3CC3)n2)C1 [compound 167] | 95% | 
6 | Cc1nc(N2CCC[C@@H](CC(=O)O)C2)ccc1C(=O)NC12CC3CC(CC(C3)C1)C2 [compound 160] | 80% | 
7 | O=C(O)C[C@@H]1CCCN(c2ccc(C(=O)NC3C4CC5CC3CC(O)(C5)C4)c(SCCc3ccccc3)n2)C1 (stereo partly shown) [compound 108] | 88% | 
8 | Cc1nc(N2CCC[C@@H](CC(=O)O)C2)ccc1C(=O)NC1CCCCC1 [compound 159] | 55% | 
9 | CCCSc1nc(N2CCC[C@H](CC(=O)O)C2)ccc1C(=O)NC1CCCCC1 [Example 1, 2-[(3R)-1-[5-(Cyclohexylcarbamoyl)-6-propylsulfanyl-pyridin-2-yl]-3-piperidyl]acetic acid] |  | inhibition at 30 µM (human 11βHSD1 enzyme [2]): 87%; pIC50 (human 11βHSD1 enzyme [1]): 7.02
10 | O=C(O)C[C@@H]1CCCN(c2ccc(C(=O)NC3C4CC5CC(C4)CC3C5)cn2)C1 (stereo partly drawn) [2-[(3S)-1-[5-(2-adamantylcarbamoyl)pyridin-2-yl]-3-piperidyl]acetic acid] |  | 50% inhibition of the enzyme achieved (human 11βHSD1 enzyme [1]; repeat assays): achieved 50% inhibition in one assay, but in a subsequent 3 assays did not
11 | O=C(O)C[C@@H]1CCCN(c2ccc(C(=O)NC3CCCCC3)c(N3CCCC3)n2)C1 [compound 155] | 94% | 
12 | O=C(O)C[C@@H]1CCCN(c2ccc(C(=O)N[C@H]3C4CC5CC3C[C@@](O)(C5)C4)c(SCc3ccccc3)n2)C1 [compound 107] | 90% | 
13 | Cc1nc(N2CCC[C@@H](CC(=O)O)C2)ccc1C(=O)NC1C2CC3CC(C2)CC1C3 (stereo partly shown) [compound 161] | 84% | 
14 | O=C(O)C[C@@H]1CCCN(c2ccc(C(=O)NC3CCCCC3)c(N3CCOCC3)n2)C1 [compound 156] | 78% | 
15 | CSc1nc(N2CC[C@@H](C(=O)O)C2)ccc1C(=O)NC1C2CC3CC(C2)CC1C3 (stereo partly drawn) [Example 77, (3R)-1-[5-(2-adamantylcarbamoyl)-6-methylsulfanyl-pyridin-2-yl]pyrrolidine-3-carboxylic acid] |  | inhibition at 30 µM (human 11βHSD1 enzyme [2]): 99%
16 | CCCSc1nc(N2CCC(C(=O)O)(C(C)C)CC2)ccc1C(=O)NC1CCCCC1 [Example 35, 4-[5-(cyclohexylcarbamoyl)-6-propylsulfanyl-pyridin-2-yl]-4-propan-2-yl-piperidine-4-carboxylic acid] |  | inhibition at 30 µM (human 11βHSD1 enzyme [2]): 93%
17 | CCCSc1nc(Oc2cccc(CC(=O)O)c2)ccc1C(=O)NC1CCCCC1 [Example 23, 2-[3-[5-(cyclohexylcarbamoyl)-6-propylsulfanyl-pyridin-2-yl]oxyphenyl]acetic acid] |  | inhibition at 30 µM (human 11βHSD1 enzyme [2]): 78%
